{
  "source": "patent US20250145633A1",
  "about": "“SUBSTITUTED FURANOPYRIMIDINE COMPOUNDS AS PDE1 INHIBITORS” (Dart NeuroScience, LLC, priority 2017, published 2025)",
  "data": [
    {"target": "human PDE1B enzyme (Homo sapiens (Human), UniProt Q01064)", "test": "IMAP TR-FRET PDE1B enzymatic assay", "type": "biochemical", "conditions": "negative log of half-maximal molar inhibitory concentration; 200 nM FAM-cAMP; values given as bins", "how_it_was_run": "(§1)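 Full-length GST-tagged human PDE1B (250 pg/well) in IMAP BSA buffer with 10 U/ml calmodulin and 2.5 mM CaCl2; compound pre-incubated 5 min at room temperature, then 200 nM (final) FAM-cAMP for 30 min. IMAP binding reagent/Tb added, 1 h; TR-FRET 520/490 ratio read. IC50 from sigmoidal dose-response fit.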", "values": [
      {"smiles": "Cc1oc2ncnc(NC3(C)CC3)c2c1C(=O)NCc1ccc(OC(F)F)cn1", "note": "[Example 59, N-{[5-(Difluoromethoxy)pyridin-2-yl]methyl}-6-methyl-4-[(1-methylcyclopropyl)amino]furo[2,3-d]pyrimidine-5-carboxamide]", "PDE1b (pIC50)": ">8"},
      {"smiles": "Cc1oc2ncnc(NC3(C)CC3)c2c1C(=O)N1CCC(c2ccn(C)n2)CC1", "note": "[Example 776, 6-Methyl-5-[4-(1-methyl-1H-pyrazol-3-yl)piperidine-1-carbonyl]-N-(1-methylcyclopropyl)furo[2,3-d]pyrimidin-4-amine]", "PDE1b (pIC50)": ">8"},
      {"smiles": "Cc1oc2ncnc(NC3(C)CC3)c2c1C(=O)N1CCN(c2ncccc2F)CC1", "note": "[Example 152, 5-[4-(3-Fluoropyridin-2-yl)piperazine-1-carbonyl]-6-methyl-N-(1-methylcyclopropyl)furo[2,3-d]pyrimidin-4-amine]", "PDE1b (pIC50)": ">8"},
      {"smiles": "Cc1oc2ncnc(NC3(C)CC3)c2c1C(=O)N(CCCO)Cc1ccc(F)cc1", "note": "[Example 574, N-[(4-Fluorophenyl)methyl]-N-(3-hydroxypropyl)-6-methyl-4-[(1-methylcyclopropyl)amino]furo[2,3-d]pyrimidine-5-carboxamide]", "PDE1b (pIC50)": ">8"},
      {"smiles": "Cc1oc2ncnc(NC3(C)CC3)c2c1C(=O)N1CCc2ccc(O)cc2C1C", "note": "(stereo not drawn) [Example 338, 1-Methyl-2-{6-methyl-4-[(1-methylcyclopropyl)amino]furo[2,3-d]pyrimidine-5-carbonyl}-1,2,3,4-tetrahydroisoquinolin-7-ol]", "PDE1b (pIC50)": ">8"},
      {"smiles": "Cc1ccc(CNC(=O)c2c(C)oc3ncnc(NC4(C)CC4)c23)cc1", "note": "[Example 196, 6-Methyl-4-[(1-methylcyclopropyl)amino]-N-[(4-methylphenyl)methyl]furo[2,3-d]pyrimidine-5-carboxamide]", "PDE1b (pIC50)": ">8"},
      {"smiles": "Cc1oc2ncnc(NC3(C)CC3)c2c1C(=O)N1CCC(c2ccc(Cl)cn2)C1", "note": "(stereo not drawn) [Example 348, 5-[3-(5-Chloropyridin-2-yl)pyrrolidine-1-carbonyl]-6-methyl-N-(1-methylcyclopropyl)furo[2,3-d]pyrimidin-4-amine]", "PDE1b (pIC50)": ">8"}
    ]},
    {"target": "human PDE1B enzyme (Homo sapiens (Human), UniProt Q01064)", "test": "IMAP TR-FRET PDE1B enzymatic assay", "type": "biochemical", "conditions": "negative log of half-maximal molar inhibitory concentration; 200 nM FAM-cAMP; values given as bins; read-out: PDE1b (pIC50) (converted)", "how_it_was_run": "as §1", "units": {"IC50": "nM"}, "values": [
      {"smiles": "Cc1oc2ncnc(NC3(C)CC3)c2c1C(=O)NC(CO)c1ccc(F)cc1", "note": "(stereo not drawn) [Example 513, N-[1-(4-Fluorophenyl)-2-hydroxyethyl]-6-methyl-4-[(1-methylcyclopropyl)amino]furo[2,3-d]pyrimidine-5-carboxamide]", "IC50": "10 to 100"},
      {"smiles": "Cc1oc2ncnc(NC3(C)CC3)c2c1C(=O)NC1(C)CCC1", "note": "[Example 104, 6-Methyl-N-(1-methylcyclobutyl)-4-[(1-methylcyclopropyl)amino]furo[2,3-d]pyrimidine-5-carboxamide]", "IC50": "10 to 100"},
      {"smiles": "Cc1oc2ncnc(NC3(C)CC3)c2c1C(=O)NCc1ccc(Cl)cc1F", "note": "[Example 534, N-[(4-Chloro-2-fluorophenyl)methyl]-6-methyl-4-[(1-methylcyclopropyl)amino]furo[2,3-d]pyrimidine-5-carboxamide]", "IC50": "10 to 100"},
      {"smiles": "COc1ncc2c(n1)CCN(C(=O)c1c(C)oc3ncnc(NC4(C)CC4)c13)C2", "note": "[Example 45, 5-{2-Methoxy-5H,6H,7H,8H-pyrido[4,3-d]pyrimidine-6-carbonyl}-6-methyl-N-(1-methylcyclopropyl)furo[2,3-d]pyrimidin-4-amine]", "IC50": "10 to 100"},
      {"smiles": "Cc1oc2ncnc(NC3(C)CC3)c2c1C(=O)N(C)Cc1cccnc1", "note": "[Example 215, N,6-Dimethyl-4-[(1-methylcyclopropyl)amino]-N-(pyridin-3-ylmethyl)furo[2,3-d]pyrimidine-5-carboxamide]", "IC50": "100 to 1000"},
      {"smiles": "Cc1oc2ncnc(NC3(C)CC3)c2c1C(=O)NC1(c2ccccn2)CC1", "note": "[Example 79, 6-Methyl-4-[(1-methylcyclopropyl)amino]-N-[1-(pyridin-2-yl)cyclopropyl]furo[2,3-d]pyrimidine-5-carboxamide]", "IC50": "10 to 100"},
      {"smiles": "COc1ccc(C2CCN(C(=O)c3c(C)oc4ncnc(NC5(C)CC5)c34)CC2)nc1F", "note": "[Example 530, 5-[4-(6-Fluoro-5-methoxypyridin-2-yl)piperidine-1-carbonyl]-6-methyl-N-(1-methylcyclopropyl)furo[2,3-d]pyrimidin-4-amine]", "IC50": "10 to 100"},
      {"smiles": "Cc1cc(C)nc(CNC(=O)c2c(C)oc3ncnc(NC4(C)CC4)c23)n1", "note": "[Example 459, N-[(4,6-Dimethylpyrimidin-2-yl)methyl]-6-methyl-4-[(1-methylcyclopropyl)amino]furo[2,3-d]pyrimidine-5-carboxamide]", "IC50": "10 to 100"},
      {"smiles": "Cc1oc2ncnc(NC3(C)CC3)c2c1C(=O)N1CCCN(c2ccccc2F)CC1", "note": "[Example 156, 5-[4-(2-Fluorophenyl)-1,4-diazepane-1-carbonyl]-6-methyl-N-(1-methylcyclopropyl)furo[2,3-d]pyrimidin-4-amine]", "IC50": "10 to 100"},
      {"smiles": "Cc1oc2ncnc(NC3(C)CC3)c2c1C(=O)NC(C)c1cnccn1", "note": "(stereo not drawn) [Example 315, 6-Methyl-4-[(1-methylcyclopropyl)amino]-N-[1-(pyrazin-2-yl)ethyl]furo[2,3-d]pyrimidine-5-carboxamide]", "IC50": "10 to 100"},
      {"smiles": "Cc1cccc(CNC(=O)c2c(C)oc3ncnc(NC4(C)CC4)c23)n1", "note": "[Example 697, 6-Methyl-4-[(1-methylcyclopropyl)amino]-N-[(6-methylpyridin-2-yl)methyl]furo[2,3-d]pyrimidine-5-carboxamide]", "IC50": "10 to 100"},
      {"smiles": "COc1ccc(N2CCCN(C(=O)c3c(C)oc4ncnc(NC5(C)CC5)c34)CC2)cc1", "note": "[Example 159, 5-[4-(4-Methoxyphenyl)-1,4-diazepane-1-carbonyl]-6-methyl-N-(1-methylcyclopropyl)furo[2,3-d]pyrimidin-4-amine]", "IC50": "100 to 1000"},
      {"smiles": "Cc1oc2ncnc(NC3(C)CC3)c2c1C(=O)N1CCc2c(ncnc2NC2(C)CC2)C1", "note": "[Example 796, 6-Methyl-N-(1-methylcyclopropyl)-5-{4-[(1-methylcyclopropyl)amino]-5H,6H,7H,8H-pyrido[3,4-d]pyrimidine-7-carbonyl}furo[2,3-d]pyrimidin-4-amine]", "IC50": "10 to 100"},
      {"smiles": "Cc1oc2ncnc(NC3(C)CC3)c2c1C(=O)NCc1cocn1", "note": "[Example 100, 6-Methyl-4-[(1-methylcyclopropyl)amino]-N-(1,3-oxazol-4-ylmethyl)furo[2,3-d]pyrimidine-5-carboxamide]", "IC50": "10 to 100"},
      {"smiles": "Cc1oc2ncnc(NC3(C)CC3)c2c1C(=O)N1CCn2nccc2C1", "note": "[Example 683, 6-Methyl-N-(1-methylcyclopropyl)-5-{4H,5H,6H,7H-pyrazolo[1,5-a]pyrazine-5-carbonyl}furo[2,3-d]pyrimidin-4-amine]", "IC50": "10 to 100"},
      {"smiles": "Cc1csc(CNC(=O)c2c(C)oc3ncnc(NC4(C)CC4)c23)n1", "note": "[Example 703, 6-Methyl-N-[(4-methyl-1,3-thiazol-2-yl)methyl]-4-[(1-methylcyclopropyl)amino]furo[2,3-d]pyrimidine-5-carboxamide]", "IC50": "10 to 100"},
      {"smiles": "Cc1cnc(C2CCN(C(=O)c3c(C)oc4ncnc(NC5(C)CC5)c34)CC2)cn1", "note": "[Example 393, 6-Methyl-N-(1-methylcyclopropyl)-5-[4-(5-methylpyrazin-2-yl)piperidine-1-carbonyl]furo[2,3-d]pyrimidin-4-amine]", "IC50": "10 to 100"},
      {"smiles": "Cc1oc2ncnc(NC3(C)CC3)c2c1C(=O)NC1CN(c2ccncn2)C1", "note": "[Example 720, 6-Methyl-4-[(1-methylcyclopropyl)amino]-N-[1-(pyrimidin-4-yl)azetidin-3-yl]furo[2,3-d]pyrimidine-5-carboxamide]", "IC50": "100 to 1000"},
      {"smiles": "Cc1oc2ncnc(NC3(C)CC3)c2c1C(=O)N1CCC(c2ccc(OCCF)cc2)C1", "note": "(stereo not drawn) [Example 797, 5-{3-[4-(2-Fluoroethoxy)phenyl]pyrrolidine-1-carbonyl}-6-methyl-N-(1-methylcyclopropyl)furo[2,3-d]pyrimidin-4-amine]", "IC50": "10 to 100"},
      {"smiles": "Cc1oc2ncnc(NC3(C)CC3)c2c1C(=O)NNc1ncc(F)cn1", "note": "[Example 363, N′-(5-Fluoropyrimidin-2-yl)-6-methyl-4-[(1-methylcyclopropyl)amino]furo[2,3-d]pyrimidine-5-carbohydrazide]", "IC50": "100 to 1000"},
      {"smiles": "Cc1oc2ncnc(NC3(C)CC3)c2c1C(=O)NCC1COC1", "note": "[Example 90, 6-Methyl-4-[(1-methylcyclopropyl)amino]-N-(oxetan-3-ylmethyl)furo[2,3-d]pyrimidine-5-carboxamide]", "IC50": "100 to 1000"},
      {"smiles": "Cc1oc2ncnc(NC3(C)CC3)c2c1C(=O)N1CCC2(CC1)OC(=O)Nc1ccc(F)cc12", "note": "[Example 386, 6-Fluoro-1′-{6-methyl-4-[(1-methylcyclopropyl)amino]furo[2,3-d]pyrimidine-5-carbonyl}-1,2-dihydrospiro[3,1-benzoxazine-4,4′-piperidine]-2-one]", "IC50": "10 to 100"},
      {"smiles": "Cc1oc2ncnc(NC3(C)CC3)c2c1C(=O)N1CCN(c2nccs2)CC1", "note": "[Example 35, 6-Methyl-N-(1-methylcyclopropyl)-5-[4-(1,3-thiazol-2-yl)piperazine-1-carbonyl]furo[2,3-d]pyrimidin-4-amine]", "IC50": "10 to 100"},
      {"smiles": "Cc1oc2ncnc(NC3(C)CC3)c2c1C(=O)N1CCc2c(ncnc2N2CC(F)C2)C1", "note": "[Example 788, 5-[4-(3-Fluoroazetidin-1-yl)-5H,6H,7H,8H-pyrido[3,4-d]pyrimidine-7-carbonyl]-6-methyl-N-(1-methylcyclopropyl)furo[2,3-d]pyrimidin-4-amine]", "IC50": "10 to 100"},
      {"smiles": "Cc1oc2ncnc(NC3(C)CC3)c2c1C(=O)Nc1cnc(N2C[C@@H](C)O[C@@H](C)C2)nc1", "note": "[Example 759, N-{2-[(2R,6S)-2,6-Dimethylmorpholin-4-yl]pyrimidin-5-yl}-6-methyl-4-[(1-methylcyclopropyl)amino]furo[2,3-d]pyrimidine-5-carboxamide]", "IC50": "100 to 1000"},
      {"smiles": "Cc1oc2ncnc(NC3(C)CC3)c2c1C(=O)N1CCN(c2nc(Cl)ncc2F)CC1", "note": "[Example 362, 5-[4-(2-Chloro-5-fluoropyrimidin-4-yl)piperazine-1-carbonyl]-6-methyl-N-(1-methylcyclopropyl)furo[2,3-d]pyrimidin-4-amine]", "IC50": "10 to 100"}
    ]}
  ]
}
